Assay results published in patent publication EP4360643A1, “SOCS1 DERIVED PEPTIDES FOR USE IN THE TREATMENT OF LIVER DISEASES” (Fundacion Instituto De Investigacion Sanitaria Fundacion …, priority 2022, dated 2024).
Bridges are numbered along the chain shown (N, C = ends). Where no end group is shown, it is not given here. [ ]: non-standard residue; d: D form. The star is where a group is joined. 1Nal = N[C@@H](Cc1cccc2ccccc12)C(=O)O; Acm = CC(=O)NC*

Legend:
[1] = tested on: ApoE-/- mice fed with HFD; test: NAFLD induced by high-fat diet (HFD) in ApoE-/- mice; type: in vivo; settings: 8 weeks of treatment
Description: In the second model, apolipoprotein E deficient mice (ApoE-/-, males, 10-12 weeks old) were administered high-fat diet (HFD, TD.88137, Envigo) for 8 weeks and treated with vehicle (n=8) or SOCS1-derived peptides (S1, n=6; liPS5, n=6; cPS5, n=6; cPS5Nal, n=6) at the dose of 4µg/g (in 200 µL) via intraperitoneal injection 3 days per week. A group of ApoE-/- mice under standard diet (Chow, n=6) was included as control.
(§1) Mice were housed in ventilated cages (2-4 mice per cage) with usual bedding material and environmental enrichment in a conventional temperature-controlled room (20-22°C) with 12 h light/dark cycle and free access to water and food. Blood glucose (glucometer; NovaPro, Menarini Diagnostics) and body weight levels were monitored once weekly during the follow-up period. At the end of the intervention studies, mice were anaesthetized (ketamine 100 mg/kg and xylazine 10 mg/kg) and euthanized, and blood and tissue samples were collected.
Hepatic lipids were extracted as previously described. Commercial colorimetric kits were used to measure concentrations of total cholesterol (STA-384, Cell Biolabs) and TG (11528, Biosystems), and values were normalized by tissue weight and mg of protein (BCA assay), respectively.
At the time of harvest, liver samples were fixed in 10% buffered formalin, processed for paraffin-embedding and cut (3-4 µm) or embedded in OCT compound and cryosectioned into 7 µm slices. Deparaffinized sections were stained with hematoxylin/eosin and Masson's trichrome to evaluate the histological NAFLD activity score (NAS) considering steatosis, lobular inflammation, ballooning and fibrosis, as previously described or were stained with picrosirious red to assess collagen deposition and fibrotic areas. Periodic Acid Schiff staining was performed for glycogen deposition assessment. Cryosections were stained with Oil red O/ hematoxylin to detect lipid accumulation.
For immunohistochemistry, liver sections were deparaffinized and […] through graded xylene and ethanol. After antigen retrieval (0.01 M citrate buffer pH 6 for 20 min) and blockade of endogenous peroxidase (3% H2O2 in methanol for 30 min) and nonspecific binding (8% host serum for 30 min), slides were incubated overnight at 4°C with primary antibodies against phosphorylated STAT1 (P-STAT1, Tyr701; Thermo Fisher Scientific Cat# 44-376G, RRID:AB_2533642), P-STAT3 (Ser727, Cell Signalling Technology Cat# 9134, RRID:AB_331589), P-nuclear factor erythroid 2-related factor 2 (NRF2, Ser40; Abcam Cat# ab76026, RRID:AB_1524049) and F4/80 monocytes/macrophages (Bio-Rad Cat# MCA497R, RRID:AB_323279). After rinsing in PBS, samples were incubated with respective secondary antibodies conjugated with either horseradish peroxidase or biotin (followed by avidin-biotin complex reagent). Immunoreactive cells were then visualized by the addition of peroxidase substrates (3, 3-diaminobenzidine or 3-amino-9-ethylcarbazole; DAKO) and counterstained with hematoxylin.
All the histological evaluations were conducted in a blinded fashion. Positive staining was quantified in at least 2 sections per mice using Image-Pro Plus software (Media Cybernetics) and expressed as percentage or number of positive cells per area.
(§2) Total RNA from mouse liver and hepatocytes was extracted using TRI Reagent (Molecular Research Center). Complementary DNA was produced via reverse transcription using High Capacity cDNA Reverse Transcription Kit (Applied Biosystems). The gene expression of mouse genes was determined in duplicate by quantitative real-time PCR using predesigned TaqMan gene expression assays (Applied Biosystems) or Premix ExTaq (Takara). The results for each sample were normalized to the 18S rRNA housekeeping expression, and data expressed as fold increases versus chow diet (in vivo studies) or basal conditions (in vitro studies).

[2] = tested on: mouse hepatocyte cell line; test: In vitro NAFLD model: hepatocytes exposed to palmitic acid (Oil red O staining, real-time PCR); type: cell-based; settings: induced by palmitic acid 400 µM, 6 hours
Description: Immortalized mouse hepatocyte cell line (kindly provided by Dr. Valverde, IIBm Alberto Sols, Madrid) were cultured in Dulbecco's Modified Eagle Medium (DMEM; D6546, Sigma-Aldrich) containing 10% FBS, 100 U/mL penicillin, 100 µg/mL streptomycin and 2 mM L-glutamine (Sigma-Aldrich) and used between 2nd-8th passages. Cells were incubated for 24 hours in medium with 0.5% FBS, pre-treated for 90 min with optimal doses of peptides (59 µM S1 and 25 µM liPS5) and then stimulated for additional 2-16 h with palmitic acid (P-0500, Sigma-Aldrich; stock solution diluted in fatty acid-free BSA to 5 mM) at a final concentration of 400 µM. Cell viability was confirmed by the 3-(4,5-dimethylthiazol-2-yl)-2,5-diphenyltetrazolium bromide tetrazolium (MTT) assay. Lipid accumulation in hepatocytes was determined by Oil red O staining.
as §2

[3] = tested on: BKS db/db mice; test: T2D-induced liver damage in BKS db/db mice (leptin receptor deficiency); type: in vivo; settings: Losartan alone, 25 µg/g in drinking water, 7 weeks
Description: Leptin receptor deficiency in diabetes-susceptible strain BKS db/db: Homozygous C57BLKS (BKS) inbred db/db mice (16-weeks old males; Envigo) were randomized to receive in drinking water an angiotensin receptor blocker (Losartan 25 µg/g body weight) or vehicle as tap water (n=25). In addition, two groups of 8 losartan-treated mice were randomized to receive S1 peptide (10 µg/g body weight) or JAK1/2 inhibitor (Baricitinib 3 µg/g body weight) via intraperitoneal injection 3 days per week for 7 weeks. All groups were monitored during 7 weeks of treatment. Heterozygous littermates (db/m; n=10) were used as non-diabetic, non-obese control group.
as §1, with “At the end of the intervention studies, mice were anaesthetized (ketamine 100 mg/kg and xylazine 10 mg/kg) and euthanized, and blood and tissue samples were collected.” left out
At the end of the studies, serum levels of glucose, triglycerides (TG), total cholesterol, high-density lipoprotein cholesterol (HDL), low-density lipoprotein cholesterol (LDL), alanine aminotransferase (ALT or GPT), aspartate aminotransferase (AST), alkaline phosphatase (ALP) and albumin were determined by automated procedures (Roche Cobas autoanalyzer). […]

[4] = 4µg/g intraperitoneal 3 days per week, vs vehicle

Molecule	gene expression of CCL5 in mouse liver [1]	gene expression of CCl2 in mouse liver [1]	gene expression of CXCL10 in mouse liver [1]	gene expression of IL-6 in mouse liver [1]	gene expression of TNFα in mouse liver [1]	gene expression of scavenger receptor CD36 in mouse liver [1]	ballooning (liver sections) [1, 4]	hepatic steatosis (liver sections, hematoxylin/eosin, Oil red O) [1, 4]	inflammation (liver sections, F4/80) [1, 4]	expression of inflammatory gene CCL2 (real-time PCR) [2]	expression of inflammatory gene IL-6 (real-time PCR) [2]	expression of scavenger receptor CD36 (real-time PCR) [2]	hepatoprotective effect [3]
DTC(Acm)RQT(Nal1)RKH (lactam bridge D1-K9) (DTC(Acm)RQT[1Nal]RKH; lactam 1-9) [cPS5Nal, cyclic PS5 with additional non-natural residue 1-naphthylalanine]	effectively prevented	effectively prevented	effectively prevented	effectively prevented	effectively prevented	effectively prevented	marked decrease	marked decrease	marked decrease	downregulated	downregulated	downregulated	–
CCCCc1nc(Cl)c(CO)n1Cc1ccc(-c2ccccc2-c2nn[nH]n2)cc1 [Losartan]	–	–	–	–	–	–	–	–	–	–	–	–	did not produce an hepatoprotective effect
